Assays:
[1] = system: human Na,K-ATPase α2β3FXYD1; assay: biochemical; assay type: biochemical
[2] = target: human Na,K-ATPase α2β1FXYD1 (Homo sapiens, UniProt P50993); assay: biochemical; assay type: biochemical
IOP in rabbits = assay: Lowering of basal IOP in rabbits, topical; assay type: in vivo, New Zealand white rabbits; conditions: one drop of 1 mM solution, other eye PBS

CC1CN(CCC2CC2)CCC(O[C@@H]2C(C)O[C@@H](OC3C(C)OC(O[C@H]4CC[C@@]5(C)C(CCC6C5CC(O)[C@]5(C)[C@@H](C7=CC(=O)OC7)CC[C@]65O)C4)C[C@@H]3O)C[C@@H]2O)O1 (stereo in doubt) [DEcP, 4-((3S,5R,8R,9S,10S,12R,13S,14S,17R)-3-(((2S,4S,5R,6R)-5-(((2S,4S,5S,6R)-5-((4-(2-cyclopropylethyl)-2-methyl-1,4-oxazepan-7-yl)oxy)-4-hydroxy-6-methyltetrahydro-2H-pyran-2-yl)oxy)-4-hydroxy-6-methyltetrahydro-2H-pyran-2-yl)oxy)-12,14-dihydroxy-10,13-dimethylhexadecahydro-1H-cyclopenta[a]phenanthren-17-yl)furan-2(5H)-one]
Selectivity Ki ratio α1β1/α2β3 [1]: 10-12

CCN1CCC(O[C@@H]2[C@H](C)O[C@@H](O[C@@H]3[C@H](C)O[C@@H](O[C@H]4CC[C@@]5(C)C(CCC6C5C[C@H](O)[C@]5(C)[C@@H](C7=CC(=O)OC7)CC[C@]65O)C4)C[C@@H]3O)C[C@@H]2O)OC(C)C1 (stereo partly drawn) [DEt]
Selectivity Ki ratio α1β1/α2β3 [1]: 9.5 | Selectivity Ki ratio α1β1/α2β1 [2]: 5.9

CC1CN(C(C)(C)C)CCC(O[C@@H]2[C@H](C)O[C@@H](O[C@@H]3[C@H](C)O[C@@H](O[C@H]4CC[C@@]5(C)C(CCC6C5C[C@H](O)[C@]5(C)[C@@H](C7=CC(=O)OC7)CC[C@]65O)C4)C[C@@H]3O)C[C@@H]2O)O1 (stereo partly drawn) [DtB]
Selectivity Ki ratio α1β1/α2β3 [1]: 8.2 | Selectivity Ki ratio α1β1/α2β1 [2]: 6.2

CC1CN(CCS(C)(=O)=O)CCC(O[C@@H]2C(C)O[C@@H](OC3C(C)OC(O[C@H]4CC[C@@]5(C)C(CCC6C5CC(O)[C@]5(C)[C@@H](C7=CC(=O)OC7)CC[C@]65O)C4)C[C@@H]3O)C[C@@H]2O)O1 (stereo in doubt) [DESM, 4-((3S,5R,8R,9S,10S,12R,13S,14S,17R)-12,14-dihydroxy-3-(((2S,4S,5R,6R)-4-hydroxy-5-(((2S,4S,5S,6R)-4-hydroxy-6-methyl-5-((2-methyl-4-(2-(methylsulfonyl)ethyl)-1,4-oxazepan-7-yl)oxy)tetrahydro-2H-pyran-2-yl)oxy)-6-methyltetrahydro-2H-pyran-2-yl)oxy)-10,13-dimethylhexadecahydro-1H-cyclopenta[a]phenanthren-17-yl)furan-2(5H)-one]
Selectivity Ki ratio α1β1/α2β1 [2]: 9.4

CC1CN(CC(N)=O)CCC(OC2C(O)CC(OC3C(O)CC(OC4CCC5(C)C(CCC6C5CC(O)C5(C)C(C7=CC(=O)OC7)CCC65O)C4)OC3C)OC2C)O1 (stereo not drawn) [DGlyN, reference compound]
effect on lowering the basal IOP (IOP in rabbits): coincides with other observations

CC1CN(CCS(N)(=O)=O)CCC(O[C@@H]2C(C)O[C@@H](OC3C(C)OC(O[C@H]4CC[C@@]5(C)C(CCC6C5CC(O)[C@]5(C)[C@@H](C7=CC(=O)OC7)CC[C@]65O)C4)C[C@@H]3O)C[C@@H]2O)O1 (stereo in doubt) [DESA, 2-(7-(((2R,3S,4S,6S)-6-(((2R,3R,4S,6S)-6-(((3S,5R,8R,9S,10S,12R,13S,14S,17R)-12,14-dihydroxy-10,13-dimethyl-17-(5-oxo-2,5-dihydrofuran-3-yl)hexadecahydro-1H-cyclopenta[a]phenanthren-3-yl)oxy)-4-hydroxy-2-methyltetrahydro-2H-pyran-3-yl)oxy)-4-hydroxy-2-methyltetrahydro-2H-pyran-3-yl)oxy)-2-methyl-1,4-oxazepan-4-yl)ethanesulfonamide]
Selectivity Ki ratio α1β1/α2β3 [1]: 15 | Selectivity Ki ratio α1β1/α2β1 [2]: 7.7

CC1CN(C(C)C)CCC(O[C@@H]2[C@H](C)O[C@@H](O[C@@H]3[C@H](C)O[C@@H](O[C@H]4CC[C@@]5(C)C(CCC6C5C[C@H](O)[C@]5(C)[C@@H](C7=CC(=O)OC7)CC[C@]65O)C4)C[C@@H]3O)C[C@@H]2O)O1 (stereo partly drawn) [DiP]
Selectivity Ki ratio α1β1/α2β1 [2]: 5.1

CC1CN(C[Si](C)(C)C)CCC(OC2C(O)CC(OC3C(O)CC(OC4CCC5(C)C(CCC6C5CC(O)C5(C)C(C7=CC(=O)OC7)CCC65O)C4)OC3C)OC2C)O1 (stereo not drawn) [DTMS]
Selectivity Ki ratio α1β1/α2β3 [1]: 6.5 | Selectivity Ki ratio α1β1/α2β1 [2]: 3

C[C@H]1O[C@@H](O[C@H]2[C@@H](O)C[C@H](O[C@H]3[C@@H](O)C[C@H](O[C@H]4CC[C@@]5(C)[C@H](CC[C@@H]6[C@@H]5C[C@@H](O)[C@]5(C)[C@@H](C7=CC(=O)OC7)CC[C@]65O)C4)O[C@@H]3C)O[C@@H]2C)C[C@H](O)[C@@H]1O [Digoxin, digoxin, reference compound]
effect on lowering the basal IOP (IOP in rabbits): neither digoxin nor DiB had a significant effect

CC1CN(C2CCCCC2)CCC(O[C@@H]2C(C)O[C@@H](OC3C(C)OC(O[C@H]4CC[C@@]5(C)C(CCC6C5CC(O)[C@]5(C)[C@@H](C7=CC(=O)OC7)CC[C@]65O)C4)C[C@@H]3O)C[C@@H]2O)O1 (stereo in doubt) [DcH, 4-((3S,5R,8R,9S,10S,12R,13S,14S,17R)-3-(((2S,4S,5R,6R)-5-(((2S,4S,5S,6R)-5-((4-cyclohexyl-2-methyl-1,4-oxazepan-7-yl)oxy)-4-hydroxy-6-methyltetrahydro-2H-pyran-2-yl)oxy)-4-hydroxy-6-methyltetrahydro-2H-pyran-2-yl)oxy)-12,14-dihydroxy-10,13-dimethylhexadecahydro-1H-cyclopenta[a]phenanthren-17-yl)furan-2(5H)-one]
Selectivity Ki ratio α1β1/α2β3 [1]: 10-12

CC1CN(CC2CC(C)(C)C2)CCC(O[C@@H]2C(C)O[C@@H](OC3C(C)OC(O[C@H]4CC[C@@]5(C)C(CCC6C5CC(O)[C@]5(C)[C@@H](C7=CC(=O)OC7)CC[C@]65O)C4)C[C@@H]3O)C[C@@H]2O)O1 (stereo in doubt) [DMDMcB, 4-((3S,5R,8R,9S,10S,12R,13S,14S,17R)-3-(((2S,4S,5R,6R)-5-(((2S,4S,5 S,6R)-5-((4-((3,3-dimethylcyclobutyl)methyl)-2-methyl-1,4-oxazepan-7-yl)oxy)-4-hydroxy-6-methyltetrahydro-2H-pyran-2-yl)oxy)-4-hydroxy-6-methyltetrahydro-2H-pyran-2-yl)oxy)-12,14-dihydroxy-10,13-dimethylhexadecahydro-1H-cyclopenta[a]phenanthren-17-yl)furan-2(5H)-one]
Selectivity Ki ratio α1β1/α2β3 [1]: 10-12

CCCN1CCC(O[C@@H]2[C@H](C)O[C@@H](O[C@@H]3[C@H](C)O[C@@H](O[C@H]4CC[C@@]5(C)C(CCC6C5C[C@H](O)[C@]5(C)[C@@H](C7=CC(=O)OC7)CC[C@]65O)C4)C[C@@H]3O)C[C@@H]2O)OC(C)C1 (stereo partly drawn) [DP]
Selectivity Ki ratio α1β1/α2β3 [1]: 8.8 | Selectivity Ki ratio α1β1/α2β1 [2]: 4.8

CC1CN(C2CCCC2)CCC(O[C@@H]2C(C)O[C@@H](OC3C(C)OC(O[C@H]4CC[C@@]5(C)C(CCC6C5CC(O)[C@]5(C)[C@@H](C7=CC(=O)OC7)CC[C@]65O)C4)C[C@@H]3O)C[C@@H]2O)O1 (stereo in doubt) [DcPe, 4-((3S,5R,8R,9S,10S,12R,13S,14S,17R)-3-(((2S,4S,5R,6R)-5-(((2S,4S,5S,6R)-5-((4-cyclopentyl-2-methyl-1,4-oxazepan-7-yl)oxy)-4-hydroxy-6-methyltetrahydro-2H-pyran-2-yl)oxy)-4-hydroxy-6-methyltetrahydro-2H-pyran-2-yl)oxy)-12,14-dihydroxy-10,13-dimethylhexadecahydro-1H-cyclopenta[a]phenanthren-17-yl)furan-2(5H)-one]
Selectivity Ki ratio α1β1/α2β3 [1]: 5

CC1CN(Cc2ccccc2)CCC(O[C@@H]2C(C)O[C@@H](OC3C(C)OC(O[C@H]4CC[C@@]5(C)C(CCC6C5CC(O)[C@]5(C)[C@@H](C7=CC(=O)OC7)CC[C@]65O)C4)C[C@@H]3O)C[C@@H]2O)O1 (stereo in doubt) [DBz, 4-((3S,5R,8R,9S,10S,12R,13S,14S,17R)-3-(((2S,4S,5R,6R)-5-(((2S,4S,5S,6R)-5-((4-benzyl-2-methyl-1,4-oxazepan-7-yl)oxy)-4-hydroxy-6-methyltetrahydro-2H-pyran-2-yl)oxy)-4-hydroxy-6-methyltetrahydro-2H-pyran-2-yl)oxy)-12,14-dihydroxy-10,13-dimethylhexadecahydro-1H-cyclopenta[a]phenanthren-17-yl)furan-2(5H)-one]
Selectivity Ki ratio α1β1/α2β3 [1]: 10-12 | Selectivity Ki ratio α1β1/α2β1 [2]: 5.7

CC1CN(CS(C)(=O)=O)CCC(O[C@@H]2C(C)O[C@@H](OC3C(C)OC(O[C@H]4CC[C@@]5(C)C(CCC6C5CC(O)[C@]5(C)[C@@H](C7=CC(=O)OC7)CC[C@]65O)C4)C[C@@H]3O)C[C@@H]2O)O1 (stereo in doubt) [DMSM, 4-((3S,5R,8R,9S,10S,12R,13S,14S,17R)-12,14-dihydroxy-3-(((2S,4S,5R,6R)-4-hydroxy-5-(((2S,4S,5S,6R)-4-hydroxy-6-methyl-5-((2-methyl-4-((methylsulfonyl)methyl)-1,4-oxazepan-7-yl)oxy)tetrahydro-2H-pyran-2-yl)oxy)-6-methyltetrahydro-2H-pyran-2-yl)oxy)-10,13-dimethylhexadecahydro-1H-cyclopenta[a]phenanthren-17-yl)furan-2(5H)-one]
Selectivity Ki ratio α1β1/α2β1 [2]: 6.9

CC1CN(C2CC2)CCC(O[C@@H]2C(C)O[C@@H](O[C@@H]3C(C)O[C@@H](O[C@H]4CC[C@@]5(C)C(CCC6C5CC(O)[C@]5(C)[C@@H](C7=CC(=O)OC7)CC[C@]65O)C4)C[C@@H]3O)C[C@@H]2O)O1 (stereo in doubt) [DcP, 4-((3S,5R,8R,9S,10S,12R,13S,14S,17R)-3-(((2R,4S,5S,6R)-5-(((2S,4S,5S,6R)-5-((4-cyclopropyl-2-methyl-1,4-oxazepan-7-yl)oxy)-4-hydroxy-6-methyltetrahydro-2H-pyran-2-yl)oxy)-4-hydroxy-6-methyltetrahydro-2H-pyran-2-yl)oxy)-12,14-dihydroxy-10,13-dimethylhexadecahydro-1H-cyclopenta[a]phenanthren-17-yl)furan-2(5H)-one]
Selectivity Ki ratio α1β1/α2β1 [2]: 7.5

CC1CN(CC(F)(F)F)CCC(O[C@@H]2[C@H](C)O[C@@H](O[C@@H]3[C@H](C)O[C@@H](O[C@H]4CC[C@@]5(C)C(CCC6C5C[C@H](O)[C@]5(C)[C@@H](C7=CC(=O)OC7)CC[C@]65O)C4)C[C@@H]3O)C[C@@H]2O)O1 (stereo partly drawn) [DCF3]
Selectivity Ki ratio α1β1/α2β3 [1]: 9.6 | Selectivity Ki ratio α1β1/α2β1 [2]: 4.1

From patent US11077128B2, “Selective inhibitors of Alpha2-containing isoforms of Na,K-ATPase and use thereof for reduction of intraocular pressure” (Yeda Research and Development Co. Ltd., priority 2015, dated 2021)
